The source of these data is patent US20100041631A1 (priority 2006, published 2010).

A word on the Km: it is the substrate concentration at which the rate is half of its maximum.

Like-named read-outs stand apart in the source and are kept apart here.

The target in test [1] is HsaCH37Rv (Mycobacterium tuberculosis, UniProt P9WNW7). Format: biochemical, M. tuberculosis H37Rv. To be noted: for Km: cell extract, pH 8.0, 25 °C.
In test [2] the target is M tuberculosis HsaC (Mycobacterium tuberculosis, UniProt P9WNW7). As to the kind of experiment: Inhibition of cloned M. tuberculosis HsaC, spectroscopic assay. The test is classed as biochemical. Particulars: in a manner consistent with oxidation of the active site Fe(II).
Test [3] addresses HsaDH37Rv (Mycobacterium tuberculosis, UniProt P9WNH5). The test is classed as biochemical, M. tuberculosis H37Rv. Particulars: for Vmax / Km: substrate of HsaDH37Rv, standard error in parentheses; for Km: cell extract, pH 8.0, 25 °C.
The test system of test [4] is M. tuberculosis H37Rv. Put plainly: Growth of H37Rv on cholesterol or 4-AD as growth substrate. The test is classed as cell-based. Particulars: for growth of H37Rv colonies on solid medium: substance as the sole organic substrate, no growth on control medium.
Test [5] deals with M. bovis Bacillus Calmette-Guerin (BCG). Format: cell-based.
[6] abbreviates: substrate of HsaCH37Rv, standard error in parentheses.

HsaDH37Rv, sequence (P9WNH5 whole entry, looked up): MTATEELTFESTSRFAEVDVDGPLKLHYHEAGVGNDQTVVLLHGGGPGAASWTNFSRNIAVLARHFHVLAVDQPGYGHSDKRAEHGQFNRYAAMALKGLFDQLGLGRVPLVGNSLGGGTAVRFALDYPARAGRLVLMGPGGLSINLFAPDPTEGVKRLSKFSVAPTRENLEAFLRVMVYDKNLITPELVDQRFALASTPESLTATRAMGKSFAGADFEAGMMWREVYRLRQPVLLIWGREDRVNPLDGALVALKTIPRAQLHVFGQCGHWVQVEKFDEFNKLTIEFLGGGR
HsaCH37Rv, sequence (P9WNW7 whole entry, looked up): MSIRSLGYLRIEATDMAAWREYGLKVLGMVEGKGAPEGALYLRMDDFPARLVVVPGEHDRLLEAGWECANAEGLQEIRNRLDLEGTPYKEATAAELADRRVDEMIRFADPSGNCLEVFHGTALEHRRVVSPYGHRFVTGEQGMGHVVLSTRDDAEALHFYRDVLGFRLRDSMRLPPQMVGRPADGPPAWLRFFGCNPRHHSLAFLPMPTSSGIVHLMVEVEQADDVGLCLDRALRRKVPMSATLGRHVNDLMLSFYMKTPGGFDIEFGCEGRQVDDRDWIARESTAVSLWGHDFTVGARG
M tuberculosis HsaC, sequence (P9WNW7 whole entry, looked up): as above

As for `Cc1ccc(O)c(O)c1CC[C@@H]1C(=O)CC[C@]2(C)C(=O)CC[C@@H]12` [3,4-DHSA, 3,4-dihydroxy-9,10-seconandrost-1,3,5(10)-triene-9,17-dione], the “apparent specificity of extradiol cleavage relative to DHB” value in test [1] is 44 fold. Further, the Vmax in test [1] (substrate of HsaCH37Rv, […], standard error in parentheses) is 12 (4) μM^s−1. The Michaelis-Menten constant (Km) in test [1] (setting [6]) was 0.9 µM.

On to `Oc1cccc(Cl)c1O` [3CC, 3-chlorocatechol], for which the “inactivation of HsaC” value in test [2] is “inactivated HsaC”.

Turning to `C/C(=C\C=C(/O)C(=O)O)C(=O)CC[C@@H]1C(=O)CC[C@]2(C)C(=O)CC[C@@H]12` [4,9-DSHA, 4,5-9,10-diseco-3-hydroxy-5,9,17-trioxoandrosta-1(10),2-diene-4-oic acid], the “apparent specificity of hydrolysis relative to HOPDA” value in test [3] ([…], higher than for HOPDA) is 34 fold. Further, in test [3] ([…]), the Vmax is 0.06 (0.02) μM^s−1. For the same compound, the Michaelis-Menten constant (Km) in test [3] is 4 µM.

Regarding `C[C@]12CCC(=O)C=C1CC[C@@H]1[C@@H]2CC[C@]2(C)C(=O)CC[C@@H]12` [4-AD, 4-androstene-3,17-dione], in test [4], the “growth of H37Rv colonies on solid medium” value was “Colonies grew”.

In the case of `Oc1cccc(-c2ccccc2)c1O` [DHB], the Vmax in test [1] is listed as 2.5 (0.4) μM^s−1. Also, the Km in test [1] (setting [6]) came out at 8.5 µM.

Consider `O=C(O)C(O)=CC=CC(=O)c1ccccc1` [HOPDA, 2-hydroxy-6-oxo-6-phenylpentadienoate], for which the Vmax in test [3] ([…]) was 0.009 (0.003) μM^s−1. The Km in test [3] turned out to be 19 µM.

As to `CC(C)CCC[C@@H](C)[C@H]1CC[C@H]2[C@@H]3CC=C4C[C@@H](O)CC[C@]4(C)[C@H]3CC[C@]12C` [cholesterol], the “overall protein yield of BCG culture” value in test [5] (medium supplemented with 0.25 mM cholesterol (0 mM: 22+/−7)) is 46 ± 9 µg/mL; in test [5] (medium supplemented with 0.5 mM cholesterol (0 mM: 22+/−7)), 70 ± 4 µg/mL. Also, the “growth of H37Rv in liquid culture” value in test [4] (phospholipid vesicles containing cholesterol versus vesicles containing no cholesterol) is “grew faster”. The “growth of H37Rv colonies on solid medium” value in test [4] was “Colonies grew”.
